Assay results reported in patent publication US10357493B2, “Metalloenzyme inhibitor compounds” (Selenity Therapeutics (Bermuda), Ltd., priority 2017, dated 2019).
Where two headings read alike, the source gives them in different places.

Legend:
HDAC5 = HDAC5 (Homo sapiens (Human), UniProt Q9UQL6); experiment: HDAC5 enzymatic assay; type: biochemical; settings: selectivity profile; read-out: HDAC Enzyme IC50, HDAC 5
Protocol: (§1) All enzymatic reactions were conducted in duplicate at room temperature for 17 hours in a 50 μl mixture containing HDAC assay buffer (50 mM Tris-HCl, pH 7.4, 137 mM NaCl, 2.7 mM KCl, 0.05% Tween 20, 5 μg BSA), an HDAC substrate, an HDAC enzyme, and a test compound. Compound dilution was prepared ten-fold higher than the final concentration of the compounds with 10% DMSO in HDAC assay buffer and 5 μl of the dilution was added to a 50 μl reaction so that the final concentration of DMSO is 1% in all of reactions. After enzymatic reactions, 50 μl of HDAC Developer was added to each well and the plate was incubated at room temperature for an additional 20 minutes. Fluorescence intensity was measured at an excitation of 360 nm and an emission of 460 nm using a Tecan Infinite M1000 or Biotek Synergy microplate reader.
(§2) The fluorescent intensity data were analyzed using the computer software, Graphpad Prism. In the absence of the compound, the fluorescent intensity (Ft) in each data set was defined as 100% activity. In the absence of HDAC, the fluorescent intensity (Fb) in each data set was defined as 0% activity. The percent activity in the presence of each compound was calculated according to the following equation: % activity=(F−Fb)/(Ft−Fb), where F=the fluorescent intensity in the presence of the compound.
(§3) The values of % activity versus a series of compound concentrations were then plotted using non-linear regression analysis of Sigmoidal dose-response curve generated with the equation Y=B+(T−B)/1+10((Log EC50−X)×Hill Slope), where Y=percent activity, B=minimum percent activity, T=maximum percent activity, X=logarithm of compound and Hill Slope=slope factor or Hill coefficient. The IC50 value was determined by the concentration causing a half-maximal percent activity.
(§4) HDAC1 enzymatic assays contained 0.5 ng HDAC1 and 10 uM of HDAC substrate. HDAC2 enzymatic assays contained 0.5 ng HDAC2 and 10 uM of HDAC substrate. HDAC3 enzymatic assays contained 0.4 ng HDAC3/NCOR2 and 10 uM of HDAC substrate. HDAC4 enzymatic assays contained 0.02 ng HDAC4 and 2 uM of HDAC substrate. HDAC5 enzymatic assays contained 0.5 ng HDAC5 and 2 uM of HDAC substrate. HDAC6 enzymatic assays contained 2 ng HDAC6 and 10 uM of HDAC substrate. HDAC7 enzymatic assays contained 0.05 ng HDAC7 and 2 uM of HDAC substrate. HDAC8 enzymatic assays contained 5 ng HDAC8 and 2 uM of HDAC substrate. HDAC9 enzymatic assays contained 1 ng HDAC9 and 2 uM of HDAC substrate. HDAC10 enzymatic assays contained 75 ng HDAC10 and 10 uM of HDAC substrate. HDAC11 enzymatic assays contained 5 ng HDAC11 and 2 uM of HDAC substrate.

HDAC7 = HDAC7 (Homo sapiens (Human), UniProt Q8WUI4); experiment: HDAC7 enzymatic assay; type: biochemical; settings: selectivity profile; read-out: HDAC Enzyme IC50, HDAC 7
Protocol: as §1, §2, §3, §4

HDAC10 = HDAC10 (Homo sapiens (Human), UniProt Q969S8); experiment: HDAC10 enzymatic assay; type: biochemical; settings: selectivity profile; read-out: HDAC Enzyme IC50, HDAC 10
Protocol: as §1, §2, §3, §4

HDAC1 = HDAC1 (Homo sapiens (Human), UniProt Q13547); experiment: HDAC1 enzymatic assay; type: biochemical
How it was run: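 Compound inhibition of human HDAC1 (0.5 ng enzyme, 10 uM substrate) was assessed by fluorescence after developer treatment, excitation 360 nm and emission 460 nm. Percent activity was normalized to no-compound (100%) and no-enzyme (0%) controls, plotted against concentration, and fitted to a sigmoidal dose-response curve in Graphpad Prism to obtain IC50 at half-maximal activity.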

HDAC2 = HDAC2 (Homo sapiens (Human), UniProt Q92769); experiment: HDAC2 enzymatic assay; type: biochemical; settings: selectivity profile; read-out: HDAC Enzyme IC50, HDAC 2
Protocol: as §1, §2, §3, §4

HDAC6 = HDAC6 (Homo sapiens (Human), UniProt Q9UBN7); experiment: HDAC6 enzymatic assay; type: biochemical
How it was run: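 Following a 17 hour room-temperature incubation of 2 ng HDAC6 with 10 uM substrate and compound, 50 μl developer was added for another 20 minutes, and fluorescence (excitation 360 nm, emission 460 nm) was recorded. Activity was normalized to no-compound (100%) and no-enzyme (0%) wells, and IC50 came from sigmoidal dose-response fitting in Graphpad Prism.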

HDAC11 = HDAC11 (Homo sapiens (Human), UniProt Q96DB2); experiment: HDAC11 enzymatic assay; type: biochemical; settings: selectivity profile; read-out: HDAC Enzyme IC50, HDAC 11
Protocol: as §1, §2, §3, §4

HDAC9 = HDAC9 (Homo sapiens (Human), UniProt Q9UKV0); experiment: HDAC9 enzymatic assay; type: biochemical; settings: selectivity profile; read-out: HDAC Enzyme IC50, HDAC 9
Protocol: as §1, §2, §3, §4

[1] = Mouse Pharmacokinetics, oral single dose; type: in vivo, male Swiss Albino mice; settings: male, Swiss Albino, plasma, 5 mg/kg, formulation by footnote: a 20% CremEL in H20, b 1% CMC in water, c 2% DMSO, 0.2% Tween80, 97.8% of 1% CMC
Protocol: Example 187: Mouse Pharmacokinetics
A dose of 5 mg/kg in an appropriate formulation was administered by oral gavage to fasted male Swiss Albino mice (n=3), and the plasma was collected at 0, 0.25, 0.5, 1, 2, 4, 8, and 24 h. Plasma levels were measured by HPLC/MS/MS methods and the pharmacokinetic parameters were determined for individual animals from plasma concentration-time data using noncompartmental model 200-202 in Phoenix WinNonlin 6.3.

HDAC8 = HDAC8 (Homo sapiens (Human), UniProt Q9BY41); experiment: HDAC8 enzymatic assay; type: biochemical; settings: selectivity profile; read-out: HDAC Enzyme IC50, HDAC 8
Protocol: as §1, §2, §3, §4

HDAC3/NCOR2 = HDAC3/NCOR2 (Homo sapiens (Human), UniProt O15379); experiment: HDAC3 enzymatic assay; type: biochemical; settings: selectivity profile; read-out: HDAC Enzyme IC50, HDAC 3
Protocol: as §1, §2, §3, §4

HDAC4 = HDAC4 (Homo sapiens (Human), UniProt P56524); experiment: HDAC4 enzymatic assay; type: biochemical; settings: selectivity profile; read-out: HDAC Enzyme IC50, HDAC 4
Protocol: as §1, §2, §3, §4

[2] = selectivity profile, read-out: HDAC Enzyme IC50, HDAC 1
[3] = selectivity profile, read-out: HDAC Enzyme IC50, HDAC 6

HDAC8, sequence (Q9BY41 whole entry, species assumed): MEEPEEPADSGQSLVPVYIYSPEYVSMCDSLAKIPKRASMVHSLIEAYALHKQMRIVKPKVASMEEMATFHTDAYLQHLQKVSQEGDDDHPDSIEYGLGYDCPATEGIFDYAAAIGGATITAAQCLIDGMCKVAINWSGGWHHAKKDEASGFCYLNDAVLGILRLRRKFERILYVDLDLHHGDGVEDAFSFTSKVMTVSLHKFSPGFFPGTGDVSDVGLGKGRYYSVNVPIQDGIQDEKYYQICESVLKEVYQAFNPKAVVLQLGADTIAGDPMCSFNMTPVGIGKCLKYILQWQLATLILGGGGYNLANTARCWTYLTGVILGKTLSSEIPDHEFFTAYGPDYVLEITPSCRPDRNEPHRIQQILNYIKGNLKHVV
HDAC3/NCOR2, sequence (O15379 whole entry, looked up, species assumed): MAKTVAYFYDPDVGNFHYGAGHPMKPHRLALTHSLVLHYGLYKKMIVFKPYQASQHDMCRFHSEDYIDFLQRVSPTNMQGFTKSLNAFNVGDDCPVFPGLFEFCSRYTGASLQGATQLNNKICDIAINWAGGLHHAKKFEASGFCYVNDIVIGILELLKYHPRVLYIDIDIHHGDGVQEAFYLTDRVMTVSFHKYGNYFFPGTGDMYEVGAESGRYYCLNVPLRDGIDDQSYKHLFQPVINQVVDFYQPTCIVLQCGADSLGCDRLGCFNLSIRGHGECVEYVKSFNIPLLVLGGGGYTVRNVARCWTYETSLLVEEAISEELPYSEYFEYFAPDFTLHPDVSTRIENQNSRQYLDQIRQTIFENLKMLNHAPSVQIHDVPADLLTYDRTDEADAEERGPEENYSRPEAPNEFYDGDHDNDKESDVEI
HDAC3/NCOR2, sequence (Q9Y618 whole entry partner, looked up, species assumed): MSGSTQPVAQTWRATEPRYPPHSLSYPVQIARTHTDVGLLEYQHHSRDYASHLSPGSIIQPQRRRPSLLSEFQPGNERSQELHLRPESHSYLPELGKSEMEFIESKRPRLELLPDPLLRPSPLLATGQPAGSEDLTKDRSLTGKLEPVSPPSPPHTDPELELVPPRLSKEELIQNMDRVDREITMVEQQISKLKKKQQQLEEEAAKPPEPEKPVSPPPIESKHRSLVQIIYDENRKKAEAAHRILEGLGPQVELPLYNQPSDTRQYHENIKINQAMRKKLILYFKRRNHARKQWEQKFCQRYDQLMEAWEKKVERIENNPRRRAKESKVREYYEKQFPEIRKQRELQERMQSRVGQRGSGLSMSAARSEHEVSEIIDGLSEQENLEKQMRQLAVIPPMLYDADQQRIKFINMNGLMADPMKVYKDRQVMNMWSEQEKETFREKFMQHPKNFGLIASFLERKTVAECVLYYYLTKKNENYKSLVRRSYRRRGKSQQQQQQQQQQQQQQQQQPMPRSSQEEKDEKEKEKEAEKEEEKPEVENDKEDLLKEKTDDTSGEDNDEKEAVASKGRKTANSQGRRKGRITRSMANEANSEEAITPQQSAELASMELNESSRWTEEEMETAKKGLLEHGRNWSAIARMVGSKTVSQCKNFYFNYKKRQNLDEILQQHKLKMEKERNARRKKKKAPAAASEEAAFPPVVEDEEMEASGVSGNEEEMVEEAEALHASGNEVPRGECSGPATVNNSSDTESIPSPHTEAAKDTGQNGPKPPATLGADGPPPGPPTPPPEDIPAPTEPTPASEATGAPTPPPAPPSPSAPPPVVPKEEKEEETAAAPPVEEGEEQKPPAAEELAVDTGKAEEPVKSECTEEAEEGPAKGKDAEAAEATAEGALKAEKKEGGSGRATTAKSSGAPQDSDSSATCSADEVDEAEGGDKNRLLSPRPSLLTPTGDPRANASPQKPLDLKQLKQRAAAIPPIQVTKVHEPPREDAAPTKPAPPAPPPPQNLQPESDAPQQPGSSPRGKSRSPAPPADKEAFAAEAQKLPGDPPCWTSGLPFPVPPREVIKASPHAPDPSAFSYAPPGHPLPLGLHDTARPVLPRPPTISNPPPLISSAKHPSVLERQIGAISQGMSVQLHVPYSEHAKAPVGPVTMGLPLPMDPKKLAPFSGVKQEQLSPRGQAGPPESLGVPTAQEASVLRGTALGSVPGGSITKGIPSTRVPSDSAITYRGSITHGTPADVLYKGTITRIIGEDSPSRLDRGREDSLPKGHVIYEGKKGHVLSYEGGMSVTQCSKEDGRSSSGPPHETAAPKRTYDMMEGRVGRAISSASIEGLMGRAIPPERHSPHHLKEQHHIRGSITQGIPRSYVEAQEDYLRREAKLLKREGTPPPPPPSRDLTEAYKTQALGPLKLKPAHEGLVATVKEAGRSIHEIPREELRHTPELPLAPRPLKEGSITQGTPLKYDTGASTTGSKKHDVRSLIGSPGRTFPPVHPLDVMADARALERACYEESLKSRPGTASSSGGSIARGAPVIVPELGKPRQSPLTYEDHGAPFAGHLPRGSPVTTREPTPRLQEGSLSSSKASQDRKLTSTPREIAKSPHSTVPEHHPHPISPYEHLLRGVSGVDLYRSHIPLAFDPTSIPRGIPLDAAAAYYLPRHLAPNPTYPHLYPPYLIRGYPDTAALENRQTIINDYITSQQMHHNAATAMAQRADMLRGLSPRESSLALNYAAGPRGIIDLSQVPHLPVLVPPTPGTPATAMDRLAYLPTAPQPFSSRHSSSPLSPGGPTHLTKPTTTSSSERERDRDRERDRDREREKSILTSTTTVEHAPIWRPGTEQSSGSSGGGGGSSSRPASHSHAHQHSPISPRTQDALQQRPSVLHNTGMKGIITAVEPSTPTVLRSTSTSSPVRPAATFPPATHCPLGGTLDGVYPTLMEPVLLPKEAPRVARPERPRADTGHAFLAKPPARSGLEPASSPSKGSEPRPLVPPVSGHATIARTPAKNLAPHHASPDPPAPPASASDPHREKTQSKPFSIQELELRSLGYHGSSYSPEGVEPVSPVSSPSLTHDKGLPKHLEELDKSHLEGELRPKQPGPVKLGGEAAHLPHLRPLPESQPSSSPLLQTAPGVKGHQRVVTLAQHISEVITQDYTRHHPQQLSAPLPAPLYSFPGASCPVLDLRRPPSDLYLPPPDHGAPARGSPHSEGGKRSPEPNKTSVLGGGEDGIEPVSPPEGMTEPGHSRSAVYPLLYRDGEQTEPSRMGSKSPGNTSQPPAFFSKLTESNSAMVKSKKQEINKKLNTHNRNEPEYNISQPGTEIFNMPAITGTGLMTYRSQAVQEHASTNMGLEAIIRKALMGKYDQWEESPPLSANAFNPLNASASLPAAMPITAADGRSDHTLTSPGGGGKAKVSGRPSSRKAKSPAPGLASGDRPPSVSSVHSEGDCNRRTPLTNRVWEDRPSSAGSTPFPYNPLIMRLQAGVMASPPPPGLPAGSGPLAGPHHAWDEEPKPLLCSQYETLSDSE
HDAC5, sequence (Q9UQL6 whole entry, species assumed): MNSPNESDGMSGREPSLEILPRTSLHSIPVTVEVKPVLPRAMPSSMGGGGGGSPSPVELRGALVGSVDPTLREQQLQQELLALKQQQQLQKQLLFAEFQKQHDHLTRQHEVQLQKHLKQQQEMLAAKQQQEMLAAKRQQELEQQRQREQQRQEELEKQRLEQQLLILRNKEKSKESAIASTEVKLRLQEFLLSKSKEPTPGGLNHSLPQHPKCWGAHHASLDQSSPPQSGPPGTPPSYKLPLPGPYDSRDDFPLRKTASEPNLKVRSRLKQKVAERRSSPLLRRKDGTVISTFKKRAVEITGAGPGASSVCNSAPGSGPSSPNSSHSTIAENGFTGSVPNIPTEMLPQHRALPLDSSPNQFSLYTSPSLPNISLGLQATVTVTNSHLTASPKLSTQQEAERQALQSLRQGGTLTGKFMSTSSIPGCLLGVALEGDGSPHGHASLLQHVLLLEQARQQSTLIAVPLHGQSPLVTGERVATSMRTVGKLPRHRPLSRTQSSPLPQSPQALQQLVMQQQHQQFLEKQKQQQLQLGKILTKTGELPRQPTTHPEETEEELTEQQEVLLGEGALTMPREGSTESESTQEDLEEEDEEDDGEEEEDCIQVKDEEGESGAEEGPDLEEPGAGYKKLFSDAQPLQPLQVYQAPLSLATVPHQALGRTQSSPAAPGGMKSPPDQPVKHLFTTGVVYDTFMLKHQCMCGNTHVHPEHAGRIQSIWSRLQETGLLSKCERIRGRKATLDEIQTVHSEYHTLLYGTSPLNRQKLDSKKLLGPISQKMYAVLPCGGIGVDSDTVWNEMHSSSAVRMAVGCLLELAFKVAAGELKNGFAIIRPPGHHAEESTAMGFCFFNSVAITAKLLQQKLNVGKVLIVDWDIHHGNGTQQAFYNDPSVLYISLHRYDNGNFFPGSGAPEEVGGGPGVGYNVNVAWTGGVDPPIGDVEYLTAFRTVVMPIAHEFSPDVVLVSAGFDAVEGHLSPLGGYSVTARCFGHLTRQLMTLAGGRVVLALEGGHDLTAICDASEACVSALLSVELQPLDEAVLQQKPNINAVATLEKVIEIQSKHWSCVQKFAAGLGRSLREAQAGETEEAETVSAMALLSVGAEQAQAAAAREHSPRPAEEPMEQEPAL
HDAC2, sequence (Q92769 whole entry, species assumed): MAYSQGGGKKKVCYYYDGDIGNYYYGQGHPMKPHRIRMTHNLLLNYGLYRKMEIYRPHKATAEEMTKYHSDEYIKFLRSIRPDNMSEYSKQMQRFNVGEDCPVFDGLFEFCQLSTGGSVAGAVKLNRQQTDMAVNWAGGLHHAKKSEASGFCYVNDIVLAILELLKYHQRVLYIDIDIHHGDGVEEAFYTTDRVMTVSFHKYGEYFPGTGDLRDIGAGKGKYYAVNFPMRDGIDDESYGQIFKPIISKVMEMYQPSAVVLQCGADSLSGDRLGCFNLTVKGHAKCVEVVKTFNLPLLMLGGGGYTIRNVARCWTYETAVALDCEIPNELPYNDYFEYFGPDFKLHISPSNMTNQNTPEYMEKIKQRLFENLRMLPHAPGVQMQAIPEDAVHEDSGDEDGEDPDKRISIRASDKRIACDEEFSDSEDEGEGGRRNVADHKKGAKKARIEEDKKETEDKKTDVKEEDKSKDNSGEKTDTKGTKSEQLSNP

IC50 (HDAC5) | IC50 (HDAC7) | IC50 (HDAC10) | IC50 (HDAC1; read-out: Human HDAC1 IC50) | IC50 (HDAC1; [2]) | IC50 (HDAC2) | IC50 (HDAC6; read-out: Human HDAC6 IC50) | IC50 (HDAC6; [3]) | IC50 (HDAC11) | IC50 (HDAC9) | Cmax [1] | half-life [1] | IC50 (HDAC8) | IC50 (HDAC3/NCOR2) | IC50 (HDAC4) | Compound
> 30 µM | 16.7 µM | > 30 µM | > 30 µM | > 30 µM | > 30 µM | 0.015 µM | 0.015 µM | > 30 µM | > 30 µM | 1110 ng/mL | 2.7 h | > 30 µM | > 30 µM | > 30 µM | CS(=O)(=O)NCC(Nc1ncc(-c2nnc(C(F)F)o2)cn1)c1ccc(F)cc1 (single isomer, unassigned) [38(+), N-(2-((5-(5-(difluoromethyl)-1,3,4-oxadiazol-2-yl)pyrimidin-2-yl)amino)-2-(4-fluorophenyl)ethyl) methanesulfonamide]
> 30 µM | 11.9 µM | > 30 µM | > 30 µM | > 30 µM | > 30 µM | 0.018 µM | 0.018 µM | > 30 µM | > 30 µM | 656 ng/mL | 4.3 h | > 30 µM | > 30 µM | 10.7 µM | CS(=O)(=O)NCC(Nc1ncc(-c2nnc(C(F)F)o2)cn1)c1ccc(OC(F)F)cc1 (single isomer, unassigned) [115(+), N-(2-(4-(difluoromethoxy)phenyl)-2-((5-(5-(difluoromethyl)-1,3,4-oxadiazol-2-yl)pyrimidin-2-yl)amino)ethyl)methanesulfonamide]
> 30 µM | > 30 µM | > 30 µM | > 30 µM | > 30 µM | > 30 µM | 0.023 µM | 0.023 µM | > 30 µM | > 30 µM |  |  | > 30 µM | > 30 µM | > 30 µM | FC(F)c1nnc(-c2cnc(NC3(c4ccccc4)CC3)nc2)o1 [Example 4, 5-(5-(difluoromethyl)-1,3,4-oxadiazol-2-yl)-N-(1-phenylcyclopropyl)pyrimidin-2-amine]
> 30 µM | > 30 µM | > 30 µM | > 100 µM | > 100 µM | > 30 µM | 0.034 µM | 0.034 µM | > 30 µM | > 30 µM |  |  | > 30 µM | > 30 µM | > 30 µM | Fc1ccc(C2(Nc3ncc(-c4nnc(C(F)F)o4)cn3)CC2)cc1 [Example 5, 5-(5-(difluoromethyl)-1,3,4-oxadiazol-2-yl)-N-(1-(4-fluorophenyl)cyclopropyl)pyrimidin-2-amine]
> 30 µM | > 30 µM | > 30 µM | > 30 µM | > 30 µM | > 30 µM | 0.038 µM | 0.038 µM | > 30 µM | > 30 µM |  |  | > 30 µM | > 30 µM | > 30 µM | CC(C)(Nc1ncc(-c2nnc(C(F)F)o2)cn1)c1ccc(F)cc1 [Example 9, 5-(5-(difluoromethyl)-1,3,4-oxadiazol-2-yl)-N-(2-(4-fluorophenyl)propan-2-yl)pyrimidin-2-amine]
> 30 µM | > 30 µM | > 30 µM | > 100 µM | > 100 µM | > 30 µM | 0.006 µM | 0.006 µM | > 30 µM | > 30 µM |  |  | > 30 µM | > 30 µM | > 30 µM | Fc1cccc(F)c1C1(Nc2ncc(-c3nnc(C(F)F)o3)cn2)CC1 [Example 11, 5-(5-(difluoromethyl)-1,3,4-oxadiazol-2-yl)-N-(1-(2,6-difluorophenyl)cyclopropyl)pyrimidin-2-amine]
> 30 µM | > 30 µM | > 30 µM | > 30 µM | > 30 µM | > 30 µM | 0.036 µM | 0.036 µM | > 30 µM | > 30 µM |  |  | > 30 µM | > 30 µM | > 30 µM | Fc1ccc(C(CC(F)(F)F)Nc2ncc(-c3nnc(C(F)F)o3)cn2)cc1 (stereo not shown) [Example 13, 5-(5-(difluoromethyl)-1,3,4-oxadiazol-2-yl)-N-(3,3,3-trifluoro-1-(4-fluorophenyl)propyl) pyrimidin-2-amine]
> 30 µM | > 30 µM | > 30 µM | > 30 µM | > 30 µM | > 30 µM | 0.008 µM | 0.008 µM | > 30 µM | > 30 µM |  |  | > 30 µM | > 30 µM | > 30 µM | Fc1ccc(C2(Nc3ncc(-c4nnc(C(F)F)o4)cn3)CC2)c(Cl)c1 [Example 62, N-(1-(2-chloro-4-fluorophenyl)cyclopropyl)-5-(5-(difluoromethyl)-1,3,4-oxadiazol-2-yl)pyrimidin-2-amine]
> 30 µM | > 30 µM | > 30 µM | > 30 µM | > 30 µM | > 30 µM | 0.028 µM | 0.028 µM | > 30 µM | > 30 µM |  |  | > 30 µM | > 30 µM | > 30 µM | C[C@@H](Nc1ncc(-c2nnc(C(F)F)o2)cn1)c1ccc(F)cc1F [Example 99-R, 5-[5-(difluoromethyl)-1,3,4-oxadiazol-2-yl]-N-[(1R)-1-(2,4-difluorophenyl)ethyl]pyrimidin-2-amine]
